{
  "source": "patent US20110217202A1",
  "about": "“ACTIVE OXYGEN DISINFECTION SYSTEM AND USE THEREOF” (priority 2010, published 2011)",
  "key": {"[1]": {"system": "S. marcescens", "assay": "Photosensitizer with or without H2O2 or PHMB, rate of kill, S. marcescens", "assay_type": "cell-based", "experimental": "All solutions (testing and control) are then incubated for about 5 minutes at 37° C. in the dark in an orbital incubator prior to exposure to the relevant light conditions. […]\n(§1) After incubation overnight, the colony forming units at the dilution where they can best be counted are quantified and number of colony forming units per mL calculated.\nIn all instances the bacterial challenge is at least 5×10^5 cfu/mL. SoftWear Saline (providing 0.003% H2O2), photosensitizer solutions are made up at double the concentration to be tested using the SoftWear Saline as the diluent. 2.5 mLs of this solution is then mixed with 2.5 mLs of bacteria to form the test solutions.\nIn all instances the bacterial challenge is at least 5×10^5 cfu/mL. Solutions containing the photosensitizers and PHMB are made up separately at quadruple the concentration to be tested."}, "[2]": {"system": "P. aeruginosa", "assay": "Photosensitizer rate of kill under light exposure, P. aeruginosa", "assay_type": "cell-based", "experimental": "P. aeruginosa is grown in nutrient broth for about 18 hours to bring the bacteria into the logarithmic growth phase prior to being spun down via centrifugation and the pellet resuspended in sterile phosphate buffered saline (PBS). The bacterial suspension is then diluted to obtain an OD of 0.9 at 540 nm. This stock bacterial solution is subsequently diluted 1 in 500 to obtain a test solution containing about 10^5-10^6 cfu/ml.\nA solution of one of the five photosensitizers is made at double the concentration to be tested.\nA testing solution (lens care solution) is prepared by adding 5 mL of a photosensitizer solution to 5 mL of the bacterial solution.\nTwo control solutions are prepared by adding 5 mL of sterile PBS to 5 mL of the bacterial solution. One of the two control solutions is kept in the dark (i.e., Control Dark) and the other one is exposed to the same light conditions as the photosensitizer test solutions (i.e., Control Light).\nAll solutions (testing and control) are then incubated for about 5 minutes at 37° C. in the dark in an orbital incubator prior to exposure to the relevant light conditions. The light source used provides broad spectrum visible light and the temperature is controlled using a fan.\nas §1\nAll solutions are then incubated for about 5 minutes at 37° C. in the dark in an orbital incubator prior to exposure to the relevant light conditions.\nTwo light sources are used to assess antibacterial activity of the range of photosensitizers. One is a broad spectrum light source which emits light across visible spectrum. […] The other light source used is a red LED, which emits light of a single wavelength at 630 nm.\nThe red LED light source emits with a power of 27 mW/cm2. In both instances, the power is measured using an ILT-1400 A Radiometer/Photometer.\nas §1"}, "[3]": {"conditions": "dissociation constant of the dibasic compound; cited from earlier work"}, "[4]": {"system": "C. albicans", "assay": "Photosensitizer with PHMB, rate of kill, C. albicans", "assay_type": "cell-based", "conditions": "10 μg/mL with 0.00005% PHMB; LED 630 nm; one hour; about 10^7 cfu/ml", "experimental": "All materials used and the method used to determine the rate of bacterial kill are described in Example 1 as was the method. In all instances the bacterial challenge is at least 5×10^5 cfu/mL. Solutions containing the photosensitizers and PHMB are made up separately at quadruple the concentration to be tested. 1.25 mLs of each solution is then added to 2.5 mLs of bacteria suspension to render the correct concentration to be tested.\nWhere a testing solution contains 10 μg/mL TMPyP and 0.00005% PHMB, a 5 Log reduction in bacterial viability against about 10^7 cfu/ml C. albicans is observed after one hour of light exposure to a LED (630 nm)."}, "[5]": {"conditions": "5 μg/mL, red light/LED 630 nm, one hour, about 10^5 cfu/ml"}, "[6]": {"conditions": "10 μg/mL, broad spectrum light source, about 45 minutes, about 10^5 cfu/ml"}},
  "data": [
    {"molecule": "CN(C)c1ccc2nc3ccc(=[N+](C)C)cc-3sc2c1", "note": "[MB, Methylene Blue]", "values": [
      {"measurement": "Log reduction in bacterial viability", "setting": "[1]; 20 μg/mL, free of H2O2, red LED 630 nm, one hour, about 10^5 cfu/ml", "result": "no reduction in bacterial viability"}
    ]},
    {"molecule": "Cl.Cl.O=S(=O)(O)c1ccc(-c2c3nc(c(-c4ccc(S(=O)(=O)O)cc4)c4ccc([nH]4)c(-c4ccc(S(=O)(=O)O)cc4)c4nc(c(-c5ccc(S(=O)(=O)O)cc5)c5ccc2[nH]5)C=C4)C=C3)cc1", "note": "[TSPP, meso-tetra(4-sulfonatophenyl)porphine dihydrochloride]", "values": [
      {"measurement": "biocidal activity", "setting": "[2]; about 1 mg/mL, broad spectrum visible light, about 10^5 cfu/ml", "result": "no significant biocidal activity"}
    ]},
    {"molecule": "OCC(CO)(CO)NCCCNC(CO)(CO)CO", "note": "[bis-TRIS-propane, 1,3-bis(tris[hydroxymethyl]methylamino)propane]", "values": [
      {"measurement": "pKa1", "setting": "[3]", "result": 6.8},
      {"measurement": "pKa2", "setting": "[3]", "result": 9.5}
    ]},
    {"molecule": "C[n+]1ccc(-c2c3nc(c(-c4cc[n+](C)cc4)c4ccc([nH]4)c(-c4cc[n+](C)cc4)c4nc(c(-c5cc[n+](C)cc5)c5ccc2[nH]5)C=C4)C=C3)cc1.Cc1ccc(S(=O)(=O)[O-])cc1.Cc1ccc(S(=O)(=O)[O-])cc1.Cc1ccc(S(=O)(=O)[O-])cc1.Cc1ccc(S(=O)(=O)[O-])cc1", "note": "[TMPyP, tetra(N-methyl-4-pyridyl)porphine tetratosylate]", "values": [
      {"measurement": "Log reduction in bacterial viability", "setting": "[4]", "result": 5, "unit": "Log"},
      {"measurement": "Log reduction in bacterial viability", "setting": "[1]; 10 μg/mL with 0.00005% PHMB, red LED 630 nm, about 45 minutes, about 10^5 cfu/ml", "result": 3, "unit": "Log"},
      {"measurement": "Log reduction in bacterial viability", "setting": "[1]; 10 μg/mL with 0.0005% PHMB, red LED 630 nm, about 15 minutes, about 10^5 cfu/ml", "result": "5-6 Log"},
      {"measurement": "Log reduction in bacterial viability", "setting": "[1]; 10 μg/mL with 0.003% H2O2, red LED 630 nm, one hour, about 10^5 cfu/ml", "result": "about 3 Log"},
      {"measurement": "Log reduction in bacterial viability", "setting": "[2]; 5 μg/mL, broad spectrum light source, one hour, about 10^5 cfu/ml", "result": 2, "unit": "Log"},
      {"measurement": "Log reduction in bacterial viability", "setting": "[2]; 5 μg/mL, broad spectrum light source, two hours, about 10^5 cfu/ml", "result": "5-6 Log"},
      {"measurement": "Log reduction in bacterial viability", "setting": "[2]; [5]", "result": 2, "unit": "Log"},
      {"measurement": "Log reduction in bacterial viability", "setting": "[2]; [6]", "result": "5-6 Log"},
      {"measurement": "Log reduction in bacterial viability", "setting": "[2]; 10 μg/mL, red LED 630 nm, about 45 minutes, about 10^5 cfu/ml", "result": "5-6 Log"},
      {"measurement": "Rate of kill (Log reduction in bacterial viability)", "setting": "[2]; 50 μg/mL, broad spectrum visible light, 45 minutes light exposure, about 10^5 cfu/ml", "result": "5-6 Log"},
      {"measurement": "Time of Light Exposure", "setting": "[2]; 50 μg/mL, broad spectrum visible light, time for the stated rate of kill", "result": 45, "unit": "min"},
      {"measurement": "Rate of kill (Log reduction in bacterial viability)", "setting": "[2]; 250 μg/mL, broad spectrum visible light, 45 minutes light exposure, about 10^5 cfu/ml", "result": "5-6 Log"},
      {"measurement": "Time of Light Exposure", "setting": "[2]; 250 μg/mL, broad spectrum visible light, time for the stated rate of kill", "result": 45, "unit": "min"},
      {"measurement": "Rate of kill (Log reduction in bacterial viability)", "setting": "[2]; 500 μg/mL, broad spectrum visible light, 30 minutes light exposure, about 10^5 cfu/ml", "result": "5-6 Log"},
      {"measurement": "Time of Light Exposure", "setting": "[2]; 500 μg/mL, broad spectrum visible light, time for the stated rate of kill (Table 1)", "result": 30, "unit": "min"}
    ]},
    {"molecule": "polyhexamethylene biguanide [PHMB]", "values": [
      {"measurement": "Log reduction in bacterial viability", "setting": "[1]; 0.00005% PHMB without any sensitizer, one hour, about 10^5 cfu/ml", "result": 1, "unit": "Log"}
    ]},
    {"molecule": "Cc1cc2nc3ccc(N(C)C)cc3[s+]c2cc1N.[Cl-]", "note": "[TBO, Toluidine Blue O]", "values": [
      {"measurement": "Log reduction in bacterial viability", "setting": "[1]; 0.625 μg/mL with 0.00005% PHMB, LED 630 nm, about 15 minutes, about 10^5 cfu/ml", "result": 3, "unit": "Log"},
      {"measurement": "Log reduction in bacterial viability", "setting": "[1]; 0.625 μg/mL with 0.00005% PHMB, LED 630 nm, about 30 minutes, about 10^5 cfu/ml", "result": "5-6 Log"},
      {"measurement": "Log reduction in bacterial viability", "setting": "[1]; 1.25 μg/mL with 0.00005% PHMB, red LED 630 nm, about 15 minutes, about 10^5 cfu/ml", "result": 3, "unit": "Log"},
      {"measurement": "Log reduction in bacterial viability", "setting": "[1]; 1.25 μg/mL with 0.00005% PHMB, red LED 630 nm, about 45 minutes, about 10^5 cfu/ml", "result": "5-6 Log"},
      {"measurement": "Log reduction in bacterial viability", "setting": "[1]; 2.5 μg/mL with 0.00005% PHMB, red LED 630 nm, about 30 minutes, about 10^5 cfu/ml", "result": "5-6 Log"},
      {"measurement": "Log reduction in bacterial viability", "setting": "[1]; 2.5 μg/mL with 0.0005% PHMB, red LED 630 nm, about 15 minutes, about 10^5 cfu/ml", "result": "5-6 Log"},
      {"measurement": "Log reduction in bacterial viability", "setting": "[1]; 2.5 μg/mL with 0.003% H2O2, red LED 630 nm, 30 minutes, about 10^5 cfu/ml", "result": "5-6 Log"},
      {"measurement": "Log reduction in bacterial viability", "setting": "[1]; 5 μg/mL only, free of H2O2, red LED 630 nm, 45 minutes", "result": "5-6 Log"},
      {"measurement": "Log reduction in bacterial viability", "setting": "[2]; 5 μg/mL, broad spectrum light source, about 30 minutes, about 10^5 cfu/ml", "result": "5-6 Log"},
      {"measurement": "Log reduction in bacterial viability", "setting": "[2]; [5]", "result": "5-6 Log"},
      {"measurement": "Log reduction in bacterial viability", "setting": "[2]; [6]", "result": "5-6 Log"},
      {"measurement": "Log reduction in bacterial viability", "setting": "[2]; 50 μg/mL, broad spectrum light source, between 30 to 45 minutes, about 10^5 cfu/ml", "result": 3, "unit": "Log"},
      {"measurement": "reduction in bacterial viability", "setting": "[2]; 250 μg/mL, broad spectrum visible light, time not stated, about 10^5 cfu/ml", "result": "no reduction in bacterial viability"},
      {"measurement": "Rate of kill (Log reduction in bacterial viability)", "setting": "[2]; 375 μg/mL, broad spectrum visible light, 30 minutes light exposure, about 10^5 cfu/ml", "result": "5-6 Log"},
      {"measurement": "Time of Light Exposure", "setting": "[2]; 375 μg/mL, broad spectrum visible light, time for the stated rate of kill", "result": 30, "unit": "min"},
      {"measurement": "Rate of kill (Log reduction in bacterial viability)", "setting": "[2]; 500 μg/mL, broad spectrum visible light, 15 minutes light exposure, about 10^5 cfu/ml", "result": "5-6 Log"},
      {"measurement": "Time of Light Exposure", "setting": "[2]; 500 μg/mL, broad spectrum visible light, time for the stated rate of kill (Table 2)", "result": 15, "unit": "min"}
    ]},
    {"molecule": "O=C1OC2(c3cc(I)c(O)c(I)c3Oc3c2cc(I)c(O)c3I)c2c(Cl)c(Cl)c(Cl)c(Cl)c21", "note": "[RB, Rose Bengal]", "values": [
      {"measurement": "Log reduction in bacterial viability", "setting": "[1]; 10 μg/mL with 0.00005% PHMB, LED 630 nm, 15 minutes, about 10^5 cfu/ml", "result": 2, "unit": "Log"},
      {"measurement": "further reduction in bacterial viability on additional light exposure", "setting": "[1]; 10 μg/mL with 0.00005% PHMB, LED 630 nm, additional light exposure up to one hour", "result": "does not reduce bacterial viability"},
      {"measurement": "Log reduction in bacterial viability", "setting": "[1]; 10 μg/mL with 0.003% H2O2, LED 630 nm, about 10^5 cfu/ml", "result": "no reduction in bacterial viability"},
      {"measurement": "Log reduction in bacterial viability", "setting": "[1]; 10 μg/mL, free of H2O2 or PHMB, LED 630 nm, about 10^5 cfu/ml", "result": "no reduction in bacterial viability"},
      {"measurement": "Log reduction in bacterial viability", "setting": "[2]; about 250 μg/mL, broad spectrum visible light, 30 minutes, about 10^5 cfu/ml", "result": "5-6 Log"}
    ]}
  ]
}
